# Experimental data reported in ChEMBL document CHEMBL1129930, “Analogues of methotrexate in rheumatoid arthritis. 2. Effects of 5-deazaaminopterin, 5,10-dideazaaminopterin, and analogues on type II collagen-induced arthritis in mice” (J Med Chem, 1997).
# Tests used:
# Assay type in all cases: functional
# [1] = Concentration required to inhibit the growth of chang liver cells.; conditions: Homo sapiens
# [2] = system: Mus musculus; experiment: Incidence of disease (mouse type II collagen) was scored as the percentage of animals within each experimental group that exhibited joint or limb inflammation on day 23 at intraperitoneal dose of 0.024 mg/kg (deaths observed at 1.5 mg/kg)
# [3] = system: Mus musculus; experiment: Incidence of disease (mouse type II collagen) was scored as the percentage of animals within each experimental group that exhibited joint or limb inflammation on day 44 at intraperitoneal dose of 0.19 mg/kg (deaths observed at 1.5 mg/kg)
# [4] = system: Mus musculus; experiment: Incidence of disease (mouse type II collagen) was scored as the percentage of animals within each experimental group that exhibited joint or limb inflammation on day 44 at intraperitoneal dose of 0.047 mg/kg (deaths observed at 1.5 mg/kg)
# [5] = system: Mus musculus; experiment: Incidence of disease (mouse type II collagen) was scored as the percentage of animals within each experimental group that exhibited joint or limb inflammation on day 30 at intraperitoneal dose of 0.19 mg/kg (deaths observed at 1.5 mg/kg)
# [6] = system: Mus musculus; experiment: Incidence of disease (mouse type II collagen) was scored as the percentage of animals within each experimental group that exhibited joint or limb inflammation on day 30 at intraperitoneal dose of 0.75 mg/kg (deaths observed at 1.5 mg/kg)
# [7] = system: Mus musculus; experiment: Tested for antiinflammatory activity on mouse type II collagen arthritis as Paw swelling of all animals in each group on day 23 at intraperitoneal dose of 0.19 mg/kg
# [8] = system: Mus musculus; experiment: Tested for antiinflammatory activity on mouse type II collagen arthritis as Paw swelling of all animals in each group on day 30 at intraperitoneal dose of 0.024 mg/kg
# [9] = system: Mus musculus; experiment: Tested for antiinflammatory activity on mouse type II collagen arthritis as Paw swelling of all animals in each group on day 30 at intraperitoneal dose of 0.047 mg/kg
# [10] = system: Mus musculus; experiment: Tested for antiinflammatory activity on mouse type II collagen arthritis as Paw swelling of all animals in each group on day 30 at intraperitoneal dose of 0.38 mg/kg
# [11] = system: Mus musculus; experiment: Tested for antiinflammatory activity on mouse type II collagen arthritis as Paw swelling of all animals in each group on day 44 at intraperitoneal dose of 0.047 mg/kg
# [12] = system: Mus musculus; experiment: Tested for antiinflammatory activity on mouse type II collagen arthritis as Paw swelling of all animals in each group on day 44 at intraperitoneal dose of 0.094 mg/kg
# [13] = system: Mus musculus; experiment: Tested for antiinflammatory activity on mouse type II collagen arthritis as Paw swelling of all animals in each group on day 44 at intraperitoneal dose of 0.19 mg/kg
# [14] = system: Mus musculus; experiment: Tested for antiinflammatory activity on mouse type II collagen arthritis as Paw swelling of all animals in each group on day 30 at intraperitoneal dose of 0.75 mg/kg
# [15] = system: Mus musculus; experiment: Tested for antiinflammatory activity on mouse type II collagen arthritis as Paw swelling of all animals in each group on day 37 at intraperitoneal dose of 0.047 mg/kg
# [16] = system: Mus musculus; experiment: Tested for antiinflammatory activity on mouse type II collagen arthritis as Paw swelling of all animals in each group on day 37 at intraperitoneal dose of 0.094 mg/kg
# [17] = system: Mus musculus; experiment: Tested for antiinflammatory activity on mouse type II collagen arthritis as Paw swelling of all animals in each group on day 37 at intraperitoneal dose of 0.75 mg/kg
compound,measurement,setting,value
CCc1c(CN(C)c2ccc(C(=O)NC(CCC(=O)O)C(=O)O)cc2)cnc2nc(N)nc(N)c12 (configuration not stated),IC50,[1],89 nM
same,Animals,[2],0%
same,Animals,[3],12%
same,Animals,[4],88%
same,Animals,[5],12%
same,Animals,[6],14%
same,Paw swelling,[7],2.11 mm
same,Paw swelling,[8],2.22 mm
same,Paw swelling,[9],2.21 mm
same,Paw swelling,[10],2.16 mm
same,Paw swelling,[11],2.57 mm
same,Paw swelling,[12],2.27 mm
same,Paw swelling,[13],2.2 mm
same,Paw swelling,[14],2.2 mm
same,Paw swelling,[15],2.33 mm
same,Paw swelling,[16],2.2 mm
same,Paw swelling,[17],2.2 mm
